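Interpolation was linear, between the two tested concentrations surrounding the appropriate level; five concentrations were tested over 48 hours in 96-well plates. The concentration for 50% growth inhibition is given as GI50. TGI: concentration producing complete growth inhibition.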
Key:
Test in all cases: DTP human tumour cell line panel, 48 h
SF-268 CNS = system: SF-268 CNS
786-0 renal = system: 786-0 renal
RXF 393 renal = system: RXF 393 renal
M14 melanoma = system: M14 melanoma
MALME-3M melanoma = system: MALME-3M melanoma
SNB-75 CNS = system: SNB-75 CNS
HT29 colon = system: HT29 colon
HL-60(TB) leukemia = system: HL-60(TB) leukemia
IGROV1 ovarian = system: IGROV1 ovarian
RPMI-8226 leukemia = system: RPMI-8226 leukemia
OVCAR-5 ovarian = system: OVCAR-5 ovarian
OVCAR-3 ovarian = system: OVCAR-3 ovarian
MDA-MB-231 breast = system: MDA-MB-231 breast
MOLT-4 leukemia = system: MOLT-4 leukemia
SK-MEL-2 melanoma = system: SK-MEL-2 melanoma
NCI/ADR-RES ovarian = system: NCI/ADR-RES ovarian
DU-145 prostate = system: DU-145 prostate
SF-295 CNS = system: SF-295 CNS
HCT-116 colon = system: HCT-116 colon
BT-549 breast = system: BT-549 breast
NCI-H460 lung = system: NCI-H460 lung
A549 NSCLC = system: A549 NSCLC
KM12 colon = system: KM12 colon
MCF7 breast = system: MCF7 breast
SW-620 colon = system: SW-620 colon
NCI-H23 lung = system: NCI-H23 lung
HCT-15 colon = system: HCT-15 colon
SN12C renal = system: SN12C renal
SF-539 CNS = system: SF-539 CNS
T-47D breast = system: T-47D breast
OVCAR-4 ovarian = system: OVCAR-4 ovarian
UACC-62 melanoma = system: UACC-62 melanoma
K-562 leukemia = system: K-562 leukemia
OVCAR-8 ovarian = system: OVCAR-8 ovarian
COLO 205 colon = system: COLO 205 colon
LOX IMVI melanoma = system: LOX IMVI melanoma
HOP-62 NSCLC = system: HOP-62 NSCLC
HOP-92 NSCLC = system: HOP-92 NSCLC
A498 renal = system: A498 renal
U251 CNS = system: U251 CNS
SK-OV-3 ovarian = system: SK-OV-3 ovarian
UO-31 renal = system: UO-31 renal
UACC-257 melanoma = system: UACC-257 melanoma
CAKI-1 renal = system: CAKI-1 renal
HS 578T breast = system: HS 578T breast
TK-10 renal = system: TK-10 renal
SR leukemia = system: SR leukemia
HCC-2998 colon = system: HCC-2998 colon
NCI-H226 lung = system: NCI-H226 lung
SK-MEL-5 melanoma = system: SK-MEL-5 melanoma
PC-3 prostate = system: PC-3 prostate
NCI-H522 lung = system: NCI-H522 lung
ACHN renal = system: ACHN renal
SK-MEL-28 melanoma = system: SK-MEL-28 melanoma
MDA-MB-435 = system: MDA-MB-435
CCRF-CEM leukemia = system: CCRF-CEM leukemia
SNB-19 CNS = system: SNB-19 CNS

COc1ccc2c(c1)C(=O)/C(=C/c1ncc([N+](=O)[O-])n1C)O2
GI50 (SF-268 CNS): 0.421 µM | TGI (SF-268 CNS): 2.1 µM | GI50 (786-0 renal): 1.51 µM | TGI (786-0 renal): 5.07 µM | GI50 (RXF 393 renal): 1.01 µM | TGI (RXF 393 renal): 3.03 µM | GI50 (M14 melanoma): 0.244 µM | TGI (M14 melanoma): 0.737 µM | GI50 (MALME-3M melanoma): 0.288 µM | TGI (MALME-3M melanoma): 1.07 µM | GI50 (SNB-75 CNS): 1.12 µM | TGI (SNB-75 CNS): 2.63 µM | GI50 (HT29 colon): 0.244 µM | TGI (HT29 colon): 0.78 µM | GI50 (HL-60(TB) leukemia): 0.263 µM | TGI (HL-60(TB) leukemia): 1.37 µM | GI50 (IGROV1 ovarian): 0.985 µM | TGI (IGROV1 ovarian): 6.91 µM | GI50 (RPMI-8226 leukemia): 0.416 µM | TGI (RPMI-8226 leukemia): 2.06 µM | GI50 (OVCAR-5 ovarian): 1.75 µM | TGI (OVCAR-5 ovarian): 5.67 µM | GI50 (OVCAR-3 ovarian): 1.3 µM | TGI (OVCAR-3 ovarian): 5.11 µM | GI50 (MDA-MB-231 breast): 0.299 µM | TGI (MDA-MB-231 breast): 0.826 µM | GI50 (MOLT-4 leukemia): 0.161 µM | TGI (MOLT-4 leukemia): 0.562 µM | GI50 (SK-MEL-2 melanoma): 0.361 µM | TGI (SK-MEL-2 melanoma): 1.61 µM | GI50 (NCI/ADR-RES ovarian): 0.391 µM | TGI (NCI/ADR-RES ovarian): 6.47 µM | GI50 (DU-145 prostate): 0.868 µM | TGI (DU-145 prostate): 2.98 µM | GI50 (SF-295 CNS): 1.5 µM | TGI (SF-295 CNS): 3.88 µM | GI50 (HCT-116 colon): 0.176 µM | TGI (HCT-116 colon): 0.48 µM | GI50 (BT-549 breast): 0.618 µM | TGI (BT-549 breast): 1.99 µM | GI50 (NCI-H460 lung): 0.934 µM | TGI (NCI-H460 lung): 7.38 µM | GI50 (A549 NSCLC): 2.18 µM | TGI (A549 NSCLC): 6.28 µM | GI50 (KM12 colon): 0.279 µM | TGI (KM12 colon): 0.973 µM | GI50 (MCF7 breast): 0.32 µM | TGI (MCF7 breast): 7.98 µM | GI50 (SW-620 colon): 0.0843 µM | TGI (SW-620 colon): 0.426 µM | GI50 (NCI-H23 lung): 1.02 µM | TGI (NCI-H23 lung): 4.76 µM | GI50 (HCT-15 colon): 0.221 µM | TGI (HCT-15 colon): 0.629 µM | GI50 (SN12C renal): 0.292 µM | TGI (SN12C renal): 1.3 µM | GI50 (SF-539 CNS): 1.55 µM | TGI (SF-539 CNS): 3.41 µM | GI50 (T-47D breast): 4.2 µM | TGI (T-47D breast): > 100 µM | GI50 (OVCAR-4 ovarian): 2.27 µM | TGI (OVCAR-4 ovarian): 7.12 µM | GI50 (UACC-62 melanoma): 1.29 µM | TGI (UACC-62 melanoma): 3.12 µM | GI50 (K-562 leukemia): 0.245 µM | GI50 (OVCAR-8 ovarian): 0.261 µM | TGI (OVCAR-8 ovarian): 2.81 µM | GI50 (COLO 205 colon): 1.07 µM | TGI (COLO 205 colon): 3.9 µM | GI50 (LOX IMVI melanoma): 0.179 µM | TGI (LOX IMVI melanoma): 0.481 µM | GI50 (HOP-62 NSCLC): 2.07 µM | TGI (HOP-62 NSCLC): 5.03 µM | GI50 (HOP-92 NSCLC): 1.23 µM | TGI (HOP-92 NSCLC): 4.51 µM | GI50 (A498 renal): 1.42 µM | TGI (A498 renal): 2.98 µM | GI50 (U251 CNS): 0.772 µM | TGI (U251 CNS): 2.84 µM | GI50 (SK-OV-3 ovarian): 2.11 µM | TGI (SK-OV-3 ovarian): 6.43 µM | GI50 (UO-31 renal): 0.494 µM | TGI (UO-31 renal): 2.53 µM | GI50 (UACC-257 melanoma): 1.41 µM | TGI (UACC-257 melanoma): 6.82 µM | GI50 (CAKI-1 renal): 0.23 µM | TGI (CAKI-1 renal): 0.617 µM | GI50 (HS 578T breast): 0.74 µM | TGI (HS 578T breast): 10.9 µM | GI50 (TK-10 renal): 1.38 µM | TGI (TK-10 renal): 13.8 µM | GI50 (SR leukemia): 0.0239 µM | TGI (SR leukemia): 1.35 µM | GI50 (HCC-2998 colon): 1.54 µM | TGI (HCC-2998 colon): 4.59 µM | GI50 (NCI-H226 lung): 2.09 µM | TGI (NCI-H226 lung): 5.3 µM | GI50 (SK-MEL-5 melanoma): 0.207 µM | TGI (SK-MEL-5 melanoma): 0.552 µM | GI50 (PC-3 prostate): 1.25 µM | TGI (PC-3 prostate): 5.46 µM | GI50 (NCI-H522 lung): 0.192 µM | TGI (NCI-H522 lung): 0.449 µM | GI50 (ACHN renal): 0.204 µM | TGI (ACHN renal): 0.596 µM | GI50 (SK-MEL-28 melanoma): 0.317 µM | TGI (SK-MEL-28 melanoma): 1.91 µM | GI50 (MDA-MB-435): 0.161 µM | TGI (MDA-MB-435): 0.323 µM | GI50 (CCRF-CEM leukemia): 0.141 µM | TGI (CCRF-CEM leukemia): 0.622 µM | GI50 (SNB-19 CNS): 1.26 µM | TGI (SNB-19 CNS): 6.08 µM
